Experimental findings from patent publication US20250059207A1, “6,6-FUSED HETEROCYCLIC COMPOUNDS AS METTL3 INHIBITORS” (858 Therapeutics, Inc., priority 2021, published 2025) are described below.

Where two headings read alike, the source gives them in different places.

As a reminder, the IC50 is the concentration that inhibits the measured activity by half.

This test deals with MOLM-13 cells. Put plainly: Viability assay in MOLM-13 cells (CellTiter-Glo 2.0). The class given is cell-based, human. As to conditions: read-out: MOLM-13 IC50 (cell viability). (In general: In ATP-based viability assays light output follows the ATP content of the culture.)
The mark [1] stands for this setting: MOLM-13 human AML cells, 72 hours, CellTiter-Glo 2.0.

Experimental: Effects of test compounds on the proliferation and viability of human AML cells was evaluated using the MOLM-13 cell line (AddexBio Technologies cat. no. C0003003). […] Test compounds or controls (Bortezomib or DMSO) diluted in 2% DMSO/media were added to each well for final concentrations of 0.2% DMSO and 0.1-1 μM Bortezomib. The cells were incubated for 72 hours at 37° C. and 5% CO2. At the end of the 72 hour incubation, plates were removed from the incubator, cooled to room temperature and equal volume of CellTiter-Glo 2.0 (Promega) added to each well. After mixing and incubating the plate at room temperature for 10 minutes the luminescence was read using a plate reader. […] Concentration-response-curves and IC50 values were generated using Collaborative Drug Discovery software.

On to `CC1CCN(Cc2ccc3nc(Cn4ccc5c(N6CC7(CCOCC7)C6)cncc5c4=O)cn3c2)CC1` [Compound 138, 2-({6-[(4-methylpiperidin-1-yl)methyl]imidazo[1,2-a]pyridin-2-yl}methyl)-5-{7-oxa-2-azaspiro[3.5]nonan-2-yl}-1,2-dihydro-2,7-naphthyridin-1-one], for which the IC50 under setting [1] was 1 to 10 µM. Turning to `O=c1c2cncc(N3CC4(CCOCC4)C3)c2ccn1Cc1cn2cc(CN3CCC4(C3)CC(F)(F)C4)ccc2n1` [Compound 140, 2-{[6-({2,2-difluoro-6-azaspiro[3.4]octan-6-yl}methyl)imidazo[1,2-a]pyridin-2-yl]methyl}-5-{7-oxa-2-azaspiro[3.5]nonan-2-yl}-1,2-dihydro-2,7-naphthyridin-1-one], the IC50 under setting [1] fell in the range of 1 to 10 µM.

As for `O=c1c2cncc(N3CC4(CCOCC4)C3)c2ccn1Cc1cn2cc(CN3CCC4(CC3)CC4(F)F)ccc2n1` [Compound 141, 2-{[6-({1,1-difluoro-6-azaspiro[2.5]octan-6-yl}methyl)imidazo[1,2-a]pyridin-2-yl]methyl}-5-{7-oxa-2-azaspiro[3.5]nonan-2-yl}-1,2-dihydro-2,7-naphthyridin-1-one], the IC50 under setting [1] is greater than 10 µM. The same measure, in the same setting: with `O=c1c2cncc(N3CC4(C3)CC(F)(F)C4)c2ccn1Cc1cn2cc(CNCC3CC(F)C3)ccc2n1` (centres unmarked) [Compound 142, 5-{6,6-difluoro-2-azaspiro[3.3]heptan-2-yl}-2-{[6-({[(3-fluorocyclobutyl)methyl]amino}methyl)imidazo[1,2-a]pyridin-2-yl]methyl}-1,2-dihydro-2,7-naphthyridin-1-one] the figure was 1 to 10 µM; with `O=c1c2cncc(N3CC4(COC4)C3)c2ccn1Cc1cn2cc(CNCC3CC(F)C3)ccc2n1` (centres unmarked) [Compound 143, 2-{[6-({[(3-fluorocyclobutyl)methyl]amino}methyl)imidazo[1,2-a]pyridin-2-yl]methyl}-5-{2-oxa-6-azaspiro[3.3]heptan-6-yl}-1,2-dihydro-2,7-naphthyridin-1-one], 1 to 10 µM.

For the compound `O=c1c2cncc(N3CC4(CCCOC4)C3)c2ccn1Cc1cn2cc(CNCC3CC(F)C3)ccc2n1` (centres unmarked) [Compound 145, 2-{[6-({[(3-fluorocyclobutyl)methyl]amino}methyl)imidazo[1,2-a]pyridin-2-yl]methyl}-5-{6-oxa-2-azaspiro[3.5]nonan-2-yl}-1,2-dihydro-2,7-naphthyridin-1-one], the concentration for half-maximal inhibition (IC50) under setting [1] lay in the range of 1 to 10 µM. Take `O=c1c2cncc(N3CC4(CCC(F)(F)CC4)C3)c2ccn1Cc1cn2cc(CNCC3CC(F)C3)ccc2n1` (centres unmarked) [Compound 146, 5-{7,7-difluoro-2-azaspiro[3.5]nonan-2-yl}-2-{[6-({[(3-fluorocyclobutyl)methyl]amino}methyl)imidazo[1,2-a]pyridin-2-yl]methyl}-1,2-dihydro-2,7-naphthyridin-1-one]: under setting [1], the half-inhibitory concentration (IC50) lay in the range of 1 to 10 µM. Turning to `O=c1c2cncc(N3CCC4(C3)CC(F)(F)C4)c2ccn1Cc1cn2cc(CNCC3CC(F)C3)ccc2n1` (centres unmarked) [Compound 147, 5-{2,2-difluoro-6-azaspiro[3.4]octan-6-yl}-2-{[6-({[(3-fluorocyclobutyl)methyl]amino}methyl)imidazo[1,2-a]pyridin-2-yl]methyl}-1,2-dihydro-2,7-naphthyridin-1-one], under setting [1], the half-inhibitory concentration (IC50) lay within 1 to 10 µM.

Regarding `O=c1c2cncc(N3CC(N4CCC(F)CC4)C3)c2ccn1Cc1cn2cc(CNCC3CC(F)C3)ccc2n1` (centres unmarked) [Compound 148, 2-{[6-({[(3-fluorocyclobutyl)methyl]amino}methyl)imidazo[1,2-a]pyridin-2-yl]methyl}-5-[3-(4-fluoropiperidin-1-yl)azetidin-1-yl]-1,2-dihydro-2,7-naphthyridin-1-one], the IC50 under setting [1] was in the range of 1 to 10 µM. Consider `O=c1c2cncc(N3CC(c4ccncc4)C3)c2ccn1Cc1cn2cc(CNCC3CC(F)C3)ccc2n1` (centres unmarked) [Compound 149, 2-{[6-({[(3-fluorocyclobutyl)methyl]amino}methyl)imidazo[1,2-a]pyridin-2-yl]methyl}-5-[3-(pyridin-4-yl)azetidin-1-yl]-1,2-dihyro-2,7-naphthyridin-1-one], for which the IC50 under setting [1] fell in the range of 1 to 10 µM. Still for that read-out and setting: with `O=c1c2cncc(N3CC(c4ccc(F)cc4)C3)c2ccn1Cc1cn2cc(CNCC3CC(F)C3)ccc2n1` (centres unmarked) [Compound 150, 2-{[6-({[(3-fluorocyclobutyl)methyl]amino}methyl)imidazo[1,2-a]pyridin-2-yl]methyl}-5-[3-(4-fluorophenyl)azetidin-1-yl]-1,2-dihydro-2,7-naphthyridin-1-one] the figure was 1 to 10 µM. For `O=c1c2cncc(N3CC4(CCOC4)C3)c2ccn1Cc1cn2cc(CNCC34CC(F)(C3)C4)ccc2n1` [Compound 151, 2-((6-((((3-fluorobicyclo[1.1.1]pentan-1-yl)methyl)amino)methyl)imidazo[1,2-a]pyridin-2-yl)methyl)-5-(6-oxa-2-azaspiro[3.4]octan-2-yl)-2,7-naphthyridin-1(2H)-one], the IC50 (Homo sapiens, MOLM-13, 72 h) was less than 1 µM.

As for `O=c1c2cncc(N3CC4(CCCOC4)C3)c2ccn1Cc1cn2cc(CNCC34CC(F)(C3)C4)ccc2n1` [Compound 153, 2-[(6-{[({3-fluorobicyclo[1.1.1]pentan-1-yl}methyl)amino]methyl}imidazo[1,2-a]pyridin-2-yl)methyl]-5-{6-oxa-2-azaspiro[3.5]nonan-2-yl}-1,2-dihydro-2,7-naphthyridin-1-one], the IC50 under setting [1] is less than 1 µM. Consider `O=c1c2cncc(-c3ccccc3F)c2ccn1Cc1cn2cc(CNCC34CC(F)(C3)C4)ccc2n1` [Compound 154, 2-[(6-{[({3-fluorobicyclo[1.1.1]pentan-1-yl}methyl)amino]methyl}imidazo[1,2-a]pyridin-2-yl)methyl]-5-(2-fluorophenyl)-1,2-dihydro-2,7-naphthyridin-1-one], for which the IC50 under setting [1] fell in the range of 1 to 10 µM. The same measure, in the same setting: with `NC(=O)c1ccc(-c2cncc3c(=O)n(Cc4cn5cc(CNCC67CC(F)(C6)C7)ccc5n4)ccc23)cc1` [Compound 155, 4-{7-[(6-{[({3-fluorobicyclo[1.1.1]pentan-1-yl}methyl)amino]methyl}imidazo[1,2-a]pyridin-2-yl)methyl]-8-oxo-7,8-dihydro-2,7-naphthyridin-4-yl}benzamide] the figure was 1 to 10 µM; with `O=c1c2cncc(C3CCC3)c2ccn1Cc1cn2cc(CNCC3CC(F)C3)ccc2n1` (centres unmarked) [Compound 156, 5-cyclobutyl-2-{[6-({[(3-fluorocyclobutyl)methyl]amino}methyl)imidazo[1,2-a]pyridin-2-yl]methyl}-1,2-dihydro-2,7-naphthyridin-1-one], greater than 10 µM; with `O=c1c2cncc(N3CC4(COC4)C3)c2cnn1Cc1cn2cc(CNCC34CC(F)(C3)C4)ccc2n1` [Compound 157, 3-[(6-{[({3-fluorobicyclo[1.1.1]pentan-1-yl}methyl)amino]methyl}imidazo[1,2-a]pyridin-2-yl)methyl]-8-{2-oxa-6-azaspiro[3.3]heptan-6-yl}pyrido[3,4-d]pyridazin-4-one], 1 to 10 µM.
